In patent US20260250318A1, “COMPOSITIONS AND METHODS FOR CROSSING THE BLOOD BRAIN BARRIER” (VOYAGER THERAPEUTICS, INC., priority 2022, published 2026):

Each sequence was assayed on brain (assay: Matured TTM-001 and TTM-002 variants, NGS enrichment in mouse brain). Settings: NGS fold-enrichment, brain of mice, relative to AAV9 control.
Assay type: in vivo, mice

First: KAEHGSGSPHSKAQNQQT
Second: KTINGSGSPHSKAQNTYA
The “Fold Enrichment relative to AAV9, Brain (Mouse)” value of the first is higher: 116.201 fold for the first, 101.715 fold for the second.

Going from “TTINGSGSPHSKAQNQQT (peptide inserted in AAV capsid)” to KTINGIGSPHSKAQNLGT, the “Fold Enrichment relative to AAV9, Brain (Mouse)” value rises from 72.058 fold to 104.769 fold.

Compared with KTSYGNGSPHSKAQNQQT, KTINGGGSPHSKAQNPPT is lower in “Fold Enrichment relative to AAV9, Brain (Mouse)” value: 105.894 fold for the first, 64.045 fold for the second.

KTFHGSGSPHSKTQNQQT was tested, and the “Fold Enrichment relative to AAV9, Brain (Mouse)” value was 51.119 fold.

Same assay, conditions: NGS fold-enrichment, mouse brain, relative to AAV9 control

Going from KTINAHDSPHKIGQNHQT to “TTINGSGSPHSKAQNQQT (peptide inserted in AAV capsid)”, the “Fold Enrichment relative to AAV9, Brain (Mouse)” value rises from 5.074 fold to 72.058 fold.

Going from KTSYGNGSPHSKAQNQQT to KTFHGSGSPHSKTQNQQT, the “Fold Enrichment relative to AAV9, Brain (Mouse)” value falls from 105.894 fold to 51.119 fold.

The sequences below were run on brains, heart, liver, muscle, and DRG of the NHPs (assay: Maturation of TTM-001 and TTM-002 capsids, NGS enrichment in NHP tissues). Settings: NGS fold-enrichment of RNA, NHP brain, relative to AAV9 control.
Assay type: in vivo
In short: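 Variants carry mutations within and flanking the loop IV peptide insert: positions 450–466 were triplet-randomized, while positions 449–466 received low-frequency point mutations. The combined pool went into two NHPs, and each peptide was scored by NGS enrichment ratio against AAV9.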

Compared with KTINAHDSPHKIGQNHQT, “TTINGSGSPHSKAQNQQT (peptide inserted in AAV capsid)” is higher in “Fold Enrichment relative to AAV9, Brain (NHP)” value: 106.832 fold for the first, 114.856 fold for the second.

First: KTSYGNGSPHSKAQNQQT
Second: KTFHGSGSPHSKTQNQQT
The “Fold Enrichment relative to AAV9, Brain (NHP)” value of the first is higher: 105.937 fold for the first, 94.714 fold for the second.

Same assay, conditions: NGS fold-enrichment, DRG of NHPs, relative to AAV9 control

KAEHGSGSPHSKAQNQQT and KTINGSGSPHSKAQNTYA are the same in “Fold Enrichment relative to AAV9, DRG (NHP)” value: 0.000 fold for the first, 0.000 fold for the second.

Compared with “TTINGSGSPHSKAQNQQT (peptide inserted in AAV capsid)”, KTINGIGSPHSKAQNLGT is lower in “Fold Enrichment relative to AAV9, DRG (NHP)” value: 1.340 fold for the first, 0.000 fold for the second.

KTSYGNGSPHSKAQNQQT and KTINGGGSPHSKAQNPPT are the same in “Fold Enrichment relative to AAV9, DRG (NHP)” value: 0.000 fold for the first, 0.000 fold for the second.

For KTFHGSGSPHSKTQNQQT, the “Fold Enrichment relative to AAV9, DRG (NHP)” value was 0.000 fold.

Same assay, conditions: NGS fold-enrichment, NHP DRG, relative to AAV9 control

First: KTINAHDSPHKIGQNHQT
Second: TTINGSGSPHSKAQNQQT (peptide inserted in AAV capsid)
The “Fold Enrichment relative to AAV9, DRG (NHP)” value of the first is lower: 0.000 fold for the first, 1.340 fold for the second.

KTSYGNGSPHSKAQNQQT and KTFHGSGSPHSKTQNQQT are the same in “Fold Enrichment relative to AAV9, DRG (NHP)” value: 0.000 fold for the first, 0.000 fold for the second.

Same assay, conditions: NGS fold-enrichment, NHP heart, relative to AAV9 control

Compared with KTINAHDSPHKIGQNHQT, “TTINGSGSPHSKAQNQQT (peptide inserted in AAV capsid)” is higher in “Fold Enrichment relative to AAV9, Heart (NHP)” value: 0.121 fold for the first, 14.856 fold for the second.

First: KTSYGNGSPHSKAQNQQT
Second: KTFHGSGSPHSKTQNQQT
The “Fold Enrichment relative to AAV9, Heart (NHP)” value of the first is lower: 0.000 fold for the first, 0.210 fold for the second.

Same assay, conditions: NGS fold-enrichment, NHP liver DNA, relative to AAV9 control

First: KTINAHDSPHKIGQNHQT
Second: TTINGSGSPHSKAQNQQT (peptide inserted in AAV capsid)
The “Fold Enrichment relative to AAV9, Liver DNA (NHP)” value of the first is lower: 0.231 fold for the first, 0.957 fold for the second.

Going from KTSYGNGSPHSKAQNQQT to KTFHGSGSPHSKTQNQQT, the “Fold Enrichment relative to AAV9, Liver DNA (NHP)” value falls from 0.114 fold to 0.000 fold.

Same assay, conditions: NGS fold-enrichment, NHP liver RNA, relative to AAV9 control

Going from KTINAHDSPHKIGQNHQT to “TTINGSGSPHSKAQNQQT (peptide inserted in AAV capsid)”, the “Fold Enrichment relative to AAV9, Liver RNA (NHP)” value rises from 0.000 fold to 1.281 fold.

KTSYGNGSPHSKAQNQQT and KTFHGSGSPHSKTQNQQT are the same in “Fold Enrichment relative to AAV9, Liver RNA (NHP)” value: 0.000 fold for the first, 0.000 fold for the second.

Same assay, conditions: NGS fold-enrichment, NHP muscle, relative to AAV9 control

First: KTINAHDSPHKIGQNHQT
Second: TTINGSGSPHSKAQNQQT (peptide inserted in AAV capsid)
The “Fold Enrichment relative to AAV9, Muscle (NHP)” value of the first is lower: 0.000 fold for the first, 0.827 fold for the second.

Compared with KTSYGNGSPHSKAQNQQT, KTFHGSGSPHSKTQNQQT is higher in “Fold Enrichment relative to AAV9, Muscle (NHP)” value: 0.000 fold for the first, 0.120 fold for the second.

Same assay, conditions: NGS fold-enrichment, RNA, brain of NHPs, relative to AAV9 control

Compared with KAEHGSGSPHSKAQNQQT, KTINGSGSPHSKAQNTYA is lower in “Fold Enrichment relative to AAV9, Brain (NHP)” value: 61.830 fold for the first, 59.603 fold for the second.

Going from “TTINGSGSPHSKAQNQQT (peptide inserted in AAV capsid)” to KTINGIGSPHSKAQNLGT, the “Fold Enrichment relative to AAV9, Brain (NHP)” value falls from 114.856 fold to 70.543 fold.

First: KTSYGNGSPHSKAQNQQT
Second: KTINGGGSPHSKAQNPPT
The “Fold Enrichment relative to AAV9, Brain (NHP)” value of the first is higher: 105.937 fold for the first, 63.041 fold for the second.

With KTFHGSGSPHSKTQNQQT the “Fold Enrichment relative to AAV9, Brain (NHP)” value was 94.714 fold.

Same assay, conditions: NGS fold-enrichment, heart of NHPs, relative to AAV9 control

KAEHGSGSPHSKAQNQQT and KTINGSGSPHSKAQNTYA are the same in “Fold Enrichment relative to AAV9, Heart (NHP)” value: 0.000 fold for the first, 0.000 fold for the second.

First: TTINGSGSPHSKAQNQQT (peptide inserted in AAV capsid)
Second: KTINGIGSPHSKAQNLGT
The “Fold Enrichment relative to AAV9, Heart (NHP)” value of the first is higher: 14.856 fold for the first, 0.071 fold for the second.

First: KTSYGNGSPHSKAQNQQT
Second: KTINGGGSPHSKAQNPPT
The “Fold Enrichment relative to AAV9, Heart (NHP)” value of the first is lower: 0.000 fold for the first, 0.082 fold for the second.

For KTFHGSGSPHSKTQNQQT, the “Fold Enrichment relative to AAV9, Heart (NHP)” value was 0.210 fold.

Same assay, conditions: NGS fold-enrichment, liver DNA of NHPs, relative to AAV9 control

First: KAEHGSGSPHSKAQNQQT
Second: KTINGSGSPHSKAQNTYA
The “Fold Enrichment relative to AAV9, Liver DNA (NHP)” value of the first is lower: 0.184 fold for the first, 0.346 fold for the second.

Compared with “TTINGSGSPHSKAQNQQT (peptide inserted in AAV capsid)”, KTINGIGSPHSKAQNLGT is lower in “Fold Enrichment relative to AAV9, Liver DNA (NHP)” value: 0.957 fold for the first, 0.135 fold for the second.

First: KTSYGNGSPHSKAQNQQT
Second: KTINGGGSPHSKAQNPPT
The “Fold Enrichment relative to AAV9, Liver DNA (NHP)” value of the first is higher: 0.114 fold for the first, 0.057 fold for the second.

With KTFHGSGSPHSKTQNQQT the “Fold Enrichment relative to AAV9, Liver DNA (NHP)” value was 0.000 fold.

Same assay, conditions: NGS fold-enrichment, liver RNA of NHPs, relative to AAV9 control

Compared with KAEHGSGSPHSKAQNQQT, KTINGSGSPHSKAQNTYA is lower in “Fold Enrichment relative to AAV9, Liver RNA (NHP)” value: 0.772 fold for the first, 0.425 fold for the second.

Compared with “TTINGSGSPHSKAQNQQT (peptide inserted in AAV capsid)”, KTINGIGSPHSKAQNLGT is lower in “Fold Enrichment relative to AAV9, Liver RNA (NHP)” value: 1.281 fold for the first, 0.000 fold for the second.

KTSYGNGSPHSKAQNQQT and KTINGGGSPHSKAQNPPT are the same in “Fold Enrichment relative to AAV9, Liver RNA (NHP)” value: 0.000 fold for the first, 0.000 fold for the second.

KTFHGSGSPHSKTQNQQT was tested, and the “Fold Enrichment relative to AAV9, Liver RNA (NHP)” value was 0.000 fold.

Same assay, conditions: NGS fold-enrichment, muscle of NHPs, relative to AAV9 control

KAEHGSGSPHSKAQNQQT and KTINGSGSPHSKAQNTYA are the same in “Fold Enrichment relative to AAV9, Muscle (NHP)” value: 0.000 fold for the first, 0.000 fold for the second.

First: TTINGSGSPHSKAQNQQT (peptide inserted in AAV capsid)
Second: KTINGIGSPHSKAQNLGT
The “Fold Enrichment relative to AAV9, Muscle (NHP)” value of the first is higher: 0.827 fold for the first, 0.000 fold for the second.

KTSYGNGSPHSKAQNQQT and KTINGGGSPHSKAQNPPT are the same in “Fold Enrichment relative to AAV9, Muscle (NHP)” value: 0.000 fold for the first, 0.000 fold for the second.

For KTFHGSGSPHSKTQNQQT, the “Fold Enrichment relative to AAV9, Muscle (NHP)” value was 0.120 fold.
